ChEMBL document CHEMBL3734673, “Potent chemical chaperone compounds for GM1-gangliosidosis: N-substituted (+)-conduramine F-4 derivatives” (Medchemcomm, 2015)
Residue numbers refer to the chain shown, from its start. Active and inactive are the calls of the source. The calls are words filed in the database; no cut-off is given here.

Legend:
Beta-galactosidase = molecular target: T1, Beta-galactosidase (Homo sapiens, UniProt P16278); experiment: Inhibition of human beta-galactosidase expressed in mouse fibroblasts using 4-methylumbelliferone -conugated beta-D-galactoside as substrate incubated for 30 mins at pH 4.5 followed by substrate addition by fluorescence analysis
T1 sequence (P16278 whole entry): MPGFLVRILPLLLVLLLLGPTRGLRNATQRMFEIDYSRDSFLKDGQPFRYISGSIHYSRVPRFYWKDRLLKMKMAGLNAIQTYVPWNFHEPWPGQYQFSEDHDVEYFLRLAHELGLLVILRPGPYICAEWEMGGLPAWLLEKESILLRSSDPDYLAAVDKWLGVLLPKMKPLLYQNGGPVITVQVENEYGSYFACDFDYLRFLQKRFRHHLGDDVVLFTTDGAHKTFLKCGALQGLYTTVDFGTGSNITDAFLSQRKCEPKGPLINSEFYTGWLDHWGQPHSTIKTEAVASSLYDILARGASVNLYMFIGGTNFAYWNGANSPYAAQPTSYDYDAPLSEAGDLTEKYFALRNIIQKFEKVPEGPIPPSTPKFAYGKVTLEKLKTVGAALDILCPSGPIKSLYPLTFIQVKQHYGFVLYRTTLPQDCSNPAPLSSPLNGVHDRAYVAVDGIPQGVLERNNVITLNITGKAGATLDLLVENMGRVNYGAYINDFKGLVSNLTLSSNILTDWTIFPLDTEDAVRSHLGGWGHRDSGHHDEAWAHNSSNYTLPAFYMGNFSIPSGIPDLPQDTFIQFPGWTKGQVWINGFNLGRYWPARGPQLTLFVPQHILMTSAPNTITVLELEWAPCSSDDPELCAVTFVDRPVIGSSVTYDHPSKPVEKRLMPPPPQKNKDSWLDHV

[1] = test system: T2, Beta-galactosidase (Homo sapiens), P16278 [R201C]; experiment: Activation of human beta-galactosidase R201C mutant expressed in mouse fibroblasts using 4-methylumbelliferone -conugated beta-D-galactoside as substrate at 20 uM preincubated for 48 hrs followed by substrate addition measured after 30 mins by fluorescence analysis relative to control
T2 sequence (whole entry): T1 sequence (P16278 whole entry) with R201C

[2] = molecular target: T3, Beta-galactosidase (Bos taurus) (UniProt Q58D55); experiment: Inhibition of bovine liver beta-galactosidase using p-nitrophenyl-beta-D-galactopyranoside as substrate preincubated with substrate followed by protein addition measured after 30 mins by microplate reader analysis
T3 sequence (whole entry): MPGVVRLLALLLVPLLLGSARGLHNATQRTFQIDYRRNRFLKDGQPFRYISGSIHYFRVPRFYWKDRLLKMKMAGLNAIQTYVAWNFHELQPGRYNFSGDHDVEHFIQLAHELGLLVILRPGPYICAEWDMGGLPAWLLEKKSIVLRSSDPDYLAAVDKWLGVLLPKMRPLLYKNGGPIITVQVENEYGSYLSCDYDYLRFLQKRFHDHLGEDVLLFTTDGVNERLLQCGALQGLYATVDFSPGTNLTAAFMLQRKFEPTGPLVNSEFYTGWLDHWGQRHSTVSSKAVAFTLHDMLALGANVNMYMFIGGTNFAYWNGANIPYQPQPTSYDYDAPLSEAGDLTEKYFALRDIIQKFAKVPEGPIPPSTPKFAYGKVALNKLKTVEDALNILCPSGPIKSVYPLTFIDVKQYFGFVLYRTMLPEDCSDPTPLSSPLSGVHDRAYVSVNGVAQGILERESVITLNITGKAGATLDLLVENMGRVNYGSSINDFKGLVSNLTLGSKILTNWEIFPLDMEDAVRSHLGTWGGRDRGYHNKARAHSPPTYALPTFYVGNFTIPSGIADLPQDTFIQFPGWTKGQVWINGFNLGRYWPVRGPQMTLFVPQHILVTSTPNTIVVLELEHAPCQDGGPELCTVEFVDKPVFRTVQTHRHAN

Prunus dulcis = experiment: Inhibition of almond beta-glucosidase using p-nitrophenyl-beta-D-glucopyranoside as substrate preincubated with substrate followed by protein addition measured after 30 mins by microplate reader analysis
[3] = molecular target: T4, Lysosomal acid glucosylceramidase (Homo sapiens, UniProt P04062); experiment: Inhibition of human beta-glucosidase isolated from human fibroblasts incubated for 30 mins using […] analysis
T4 sequence (P04062 whole entry): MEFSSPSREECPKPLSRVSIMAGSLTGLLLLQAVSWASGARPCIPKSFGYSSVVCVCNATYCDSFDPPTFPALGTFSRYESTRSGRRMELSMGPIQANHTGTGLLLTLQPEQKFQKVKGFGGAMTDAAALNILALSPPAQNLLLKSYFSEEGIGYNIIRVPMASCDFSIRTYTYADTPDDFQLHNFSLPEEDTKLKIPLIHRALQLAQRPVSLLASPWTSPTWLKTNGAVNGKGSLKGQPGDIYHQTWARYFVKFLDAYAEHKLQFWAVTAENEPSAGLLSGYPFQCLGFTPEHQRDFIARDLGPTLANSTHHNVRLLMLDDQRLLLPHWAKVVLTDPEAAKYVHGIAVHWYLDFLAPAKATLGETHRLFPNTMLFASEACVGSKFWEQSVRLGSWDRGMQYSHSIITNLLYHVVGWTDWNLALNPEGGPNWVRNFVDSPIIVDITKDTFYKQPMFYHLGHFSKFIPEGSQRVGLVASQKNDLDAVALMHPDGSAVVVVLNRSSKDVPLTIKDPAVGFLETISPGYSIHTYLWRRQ

[4] = Inhibition of human alpha-galactosidase isolated from human fibroblasts incubated for 30 mins using […] analysis
[5] = Cytotoxicity against human fibroblasts at 200 uM by LDH assay; assay type: cell-based; settings: fibroblast
[6] = test system: T2, Beta-galactosidase (Homo sapiens), P16278 [R201C]; experiment: Activation of human beta-galactosidase R201C mutant expressed in mouse fibroblasts using 4-methylumbelliferone -conugated beta-D-galactoside as substrate at 2 uM preincubated for 48 hrs followed by substrate addition measured after 30 mins by fluorescence analysis relative to control
[7] = Cytotoxicity against human fibroblasts at 20 uM by LDH assay; assay type: cell-based; settings: fibroblast
[8] = test system: T2, Beta-galactosidase (Homo sapiens), P16278 [R201C]; experiment: Activation of human beta-galactosidase R201C mutant expressed in mouse fibroblasts using 4-methylumbelliferone -conugated beta-D-galactoside as substrate at 0.2 uM preincubated for 48 hrs followed by substrate addition measured after 30 mins by fluorescence analysis relative to control

Compound	IC50 (Beta-galactosidase) [mM]	fold change (FC) [1]	inhibition [2]	inhibition (Prunus dulcis)	IC50 [3] [mM]	IC50 [4] [mM]	Activity [5] [%]	fold change (FC) [6]	Activity [7] [%]	Activity [6]	Activity [8]
Cl.O[C@@H]1[C@@H](O)[C@H](NCc2ccccc2)C=C[C@@H]1O	0.18	1.5	Active	Active	> 1	> 1	< 10				
Cl.OCCCN[C@@H]1C=C[C@H](O)[C@H](O)[C@H]1O	> 1	0.9	Active	Active	> 1	> 1	< 10				
CCC(CC)CN[C@@H]1C=C[C@H](O)[C@H](O)[C@H]1O.Cl	0.015	7.4	Active	Active	> 1	> 1	< 10				
Cl.O[C@@H]1[C@@H](O)[C@H](NC2CCCCC2)C=C[C@@H]1O	0.49	1.4	Active	Active	> 1	> 1	< 10				
CCCCCCN[C@@H]1C=C[C@H](O)[C@H](O)[C@H]1O.Cl	0.056	4.6	Active	Active	> 1	> 1	< 10				
CC(C)CN[C@@H]1C=C[C@H](O)[C@H](O)[C@H]1O.Cl	0.041	4.6	Active	Active	> 1	> 1	< 10				
CCCCCN[C@@H]1C=C[C@H](O)[C@H](O)[C@H]1O.Cl	0.019	4	Active	Active	> 1	> 1	< 10				
CCCCCCCCN[C@@H]1C=C(CO)[C@H](O)[C@H](O)[C@H]1O.Cl	0.0017	3.6			> 1	> 1	7.5	4.6	1.1		
Cl.O[C@@H]1[C@@H](O)[C@H](NCC2CCCCC2)C=C[C@@H]1O	0.06	8.5	Active	Active	> 1	> 1	3.8		0.7		
CCCCCCCCN[C@@H]1C=C[C@H](O)[C@H](O)[C@H]1O.Cl	0.12	5.4	Active	Active	> 1	> 1	25			Active	Active
CCC(CC)N[C@@H]1C=C[C@H](O)[C@H](O)[C@H]1O.Cl	> 1	1.2	Active	Active	> 1	> 1	< 10				
CC(C)CCN[C@@H]1C=C[C@H](O)[C@H](O)[C@H]1O.Cl	0.028	4.6	Active	Active	> 1	> 1	< 10				
CCCCCCCCN[C@@H]1C=C(C)[C@H](O)[C@H](O)[C@H]1O	0.046	5.2			> 1	> 1				Active	Active
Cl.O[C@@H]1[C@@H](O)[C@H](NCCc2ccccc2)C=C[C@@H]1O	0.086	4.2	Active	Active	> 1	> 1	< 10				
CCCCN[C@@H]1C=C[C@H](O)[C@H](O)[C@H]1O.Cl	0.05	2	Active	Active	> 1	> 1	< 10				
CCCCCCCCCCN[C@@H]1C=C[C@H](O)[C@H](O)[C@H]1O.Cl	0.043	1.6	Active	Active	> 1	> 1	54		24		
